Results on 41 compounds are retold here after patent US11130748B2, “Compounds” (MISSION THERAPEUTICS LIMITED, priority 2015, dated 2021).

One may read the IC50 as the concentration at which inhibition is half-maximal.

In one test the target is USP30 (Homo sapiens (Human), UniProt Q70CQ3). The experiment in a line: USP30 biochemical IC50 assay.
Sequence of USP30 (Q70CQ3 57-517): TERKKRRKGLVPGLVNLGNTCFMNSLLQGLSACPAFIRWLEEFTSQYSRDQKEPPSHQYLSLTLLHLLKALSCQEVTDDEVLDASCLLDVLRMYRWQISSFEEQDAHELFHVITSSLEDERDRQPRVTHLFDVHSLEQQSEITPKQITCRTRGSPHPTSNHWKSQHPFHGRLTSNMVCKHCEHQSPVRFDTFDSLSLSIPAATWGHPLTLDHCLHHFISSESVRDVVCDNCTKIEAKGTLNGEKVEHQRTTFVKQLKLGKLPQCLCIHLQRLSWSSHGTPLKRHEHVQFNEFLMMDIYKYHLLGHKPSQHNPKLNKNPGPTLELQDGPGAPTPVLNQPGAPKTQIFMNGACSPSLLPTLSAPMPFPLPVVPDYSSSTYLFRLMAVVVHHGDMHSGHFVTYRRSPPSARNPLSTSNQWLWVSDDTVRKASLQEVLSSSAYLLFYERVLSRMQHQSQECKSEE
Details: not given
As for the experimental part: USP30 Biochemical IC50 Assay
Dilution plates were prepared at 21 times the final concentration (2100 μM for a final concentration of 100 μM) in 50% DMSO in a 96-well polypropylene V-bottom plate (Greiner #651201). A typical 8-point dilution series to be 100, 30, 10, 3, 1, 0.3, 0.1, 0.03 μM final. Reactions were performed in duplicate in black 384 well plates (small volume, Greiner 784076) in a final reaction volume of 21 μl. Either 1 μl of 50% DMSO or diluted compound was added to the plate. USP30 was diluted in reaction buffer (40 mM Tris, pH 7.5, 0.005% Tween 20, 0.5 mg/ml BSA, 5 mM beta-mercaptoethanol) to the equivalent of 0.05 μl/well and 10 μl of diluted USP30 was added to the compound. Enzyme and compound were incubated for 30 min at room temp. Reactions were initiated by the addition of 50 nM of TAMRA labelled peptide linked to ubiquitin via an iso-peptide bond as fluorescence polarisation substrate. Reactions were read immediately after addition of substrate and following a 2 hr incubation at room temperature. Readings were performed on a Pherastar Plus (BMG Labtech). λ Excitation 540 nm; λ Emission 590 nm.
Compound `N#CN1CCC(CNC(=O)c2nn(Cc3ccc(Cl)cc3Cl)c3ccccc23)C1` (centres unmarked) [Example 28, N-((1-Cyanopyrrolidin-3-yl)methyl)-1-(2,4-dichlorobenzyl)-1H-indazole-3-carboxamide] yielded an IC50 of under 0.1 µM.

Consider `N#CN1CCC(CNC(=O)c2nn(Cc3ccccc3)c3ccccc23)C1` (centres unmarked) [Example 29, 1-Benzyl-N-((1-cyanopyrrolidin-3-yl)methyl)-1H-indazole-3-carboxamide], for which the IC50 was in the range of 1 to 10 µM.

The same test, now with this note: fluorescence polarisation, TAMRA labelled peptide linked to ubiquitin; 30 min pre-incubation, 2 hr read; read-out: IC50 range.
`N#CN1CCC(CNc2ccc3ccccc3n2)C1` (centres unmarked) [Example 1, 3-((Quinolin-2-ylamino)methyl)pyrrolidine-1-carbonitrile]: the IC50 is 1 to 10 µM.

Regarding `N#CN1CCC(CNc2nc3ccc(F)cc3s2)C1` (centres unmarked) [Example 2, 3-(((6-Fluorobenzo[d]thiazol-2-yl)amino)methyl)pyrrolidine-1-carbonitrile], the IC50 is 1 to 10 µM.

`N#CN1CCC(CNc2nccc3ccccc23)C1` (centres unmarked) [Example 3, 3-((Isoquinolin-1-ylamino)methyl)pyrrolidine-1-carbonitrile]: the IC50 is 1 to 10 µM.

As for `N#CN1CCC(CNc2ncccc2-c2ccccc2)C1` (centres unmarked) [Example 4, 3-(((3-Phenylpyridin-2-yl)amino)methyl)pyrrolidine-1-carbonitrile], the IC50 lay in the range of 10 to 100 µM.

`N#CN1CCC(CNc2cc(-c3ccccc3)ccn2)C1` (centres unmarked) [Example 5, 3-(((4-Phenylpyridin-2-yl)amino)methyl)pyrrolidine-1-carbonitrile]: the IC50 lay in the range of 0.1 to 1 µM.

In the case of `N#CN1CCC(CNc2ccc(-c3ccccc3)cn2)C1` (centres unmarked) [Example 6, 3-(((5-Phenylpyridin-2-yl)amino)methyl)pyrrolidine-1-carbonitrile], the concentration for half-maximal inhibition (IC50) fell in the range of 1 to 10 µM.

For the compound `N#CN1CCC(CNc2cccc(-c3ccccc3)n2)C1` (centres unmarked) [Example 7, 3-(((6-Phenylpyridin-2-yl)amino)methyl)pyrrolidine-1-carbonitrile], the concentration for half-maximal inhibition (IC50) fell in the range of 1 to 10 µM.

As for `N#CN1CCC(CNc2nccc(-c3ccccc3)n2)C1` (centres unmarked) [Example 8, 3-(((4-Phenylpyrimidin-2-yl)amino)methyl)pyrrolidine-1-carbonitrile], the IC50 was 1 to 10 µM.

As for `N#CN1CC[C@H](CNc2ncc(-c3ccccc3)s2)C1` [Example 9, (R)-3-(((5-Phenylthiazol-2-yl)amino)methyl)pyrrolidine-1-carbonitrile], the IC50 is under 0.1 µM.

For the compound `N#CN1CC[C@@H](CNc2ncc(-c3ccccc3)s2)C1` [Example 10, (S)-3-(((5-Phenylthiazol-2-yl)amino)methyl)pyrrolidine-1-carbonitrile], the IC50 was in the range of 0.1 to 1 µM.

Turning to `N#CN1CCC(CNc2nc3ccc(-c4cn[nH]c4)cc3s2)C1` (centres unmarked) [Example 11, 3-(((6-(1H-Pyrazol-4-yl)benzo[d]thiazol-2-yl)amino)methyl)pyrrolidine-1-carbonitrile], the concentration for half-maximal inhibition (IC50) was in the range of 0.1 to 1 µM.

Consider `N#CN1CC[C@H](CNc2ncc3ccc(-c4cn[nH]c4)cc3n2)C1` [Example 12, (R)-3-(((7-(1H-Pyrazol-4-yl)quinazolin-2-yl)amino)methyl)pyrrolidine-1-carbonitrile], for which the IC50 lay in the range of 1 to 10 µM.

Turning to `Cc1nn(C)cc1-c1cccc(NCC2CCN(C#N)C2)c1` (centres unmarked) [Example 13, 3-(((3-(1,3-dimethyl-1H-pyrazol-4-yl)phenyl)amino)methyl)pyrrolidine-1-carbonitrile], the concentration for half-maximal inhibition (IC50) lay within 1 to 10 µM.

As to `Cc1nn(C)cc1-c1ccc(NCC2CCN(C#N)C2)cc1` (centres unmarked) [Example 14, 3-(((4-(1,3-Dimethyl-1H-pyrazol-4-yl)phenyl)amino)methyl) pyrrolidine-1-carbonitrile], the IC50 lay within 1 to 10 µM.

On to `Cc1nn(C)cc1-c1ccc(NCC2CCN(C#N)C2)c(F)c1` (centres unmarked) [Example 15, 3-(((4-(1,3-Dimethyl-1H-pyrazol-4-yl)-2-fluorophenyl)amino)methyl)pyrrolidine-1-carbonitrile], for which the IC50 is 1 to 10 µM.

`N#Cc1ccc2cnc(NCC3CCN(C#N)C3)cc2c1` (centres unmarked) [Example 16, 3-(((1-Cyano-pyrrolidin-3-yl)methyl)amino) isoquinoline-6-carbonitrile]: the half-maximal inhibitory concentration (IC50) fell in the range of 1 to 10 µM.

With `CNC(=O)c1ccc2cnc(NCC3CCN(C#N)C3)cc2c1` (centres unmarked) [Example 17, 3-(((1-Cyano-pyrrolidin-3-yl)methyl)amino)-N-methylisoquinoline-6-carboxamide], the half-inhibitory concentration (IC50) lay within 1 to 10 µM.

For the compound `N#CN1CCC(CNc2ccnc(N3Cc4ccccc4C3)c2)C1` (centres unmarked) [Example 18, 3-(((2-(isoindolin-2-yl)pyridin-4-yl)amino)methyl)pyrrolidine-1-carbonitrile], the IC50 fell in the range of 0.1 to 1 µM.

With `N#CN1CC[C@@H](CNc2nccc(-c3ccccc3)n2)C1` [Example 19, (S)-3-(((4-Phenylpyrimidin-2-yl)amino)methyl)pyrrolidine-1-carbonitrile], the IC50 fell in the range of 1 to 10 µM.

On to `CN1C(=O)COc2ccc(C(=O)NCC3CCN(C#N)C3)cc21` (centres unmarked) [Example 23, N-((1-Cyanopyrrolidin-3-yl)methyl)-4-methyl-3-oxo-3,4-dihydro-2H-benzo[b][1,4]oxazine-6-carboxamide], for which the IC50 lay in the range of 0.1 to 1 µM.

Take `N#CN1CCC(CNC(=O)c2ccc(-c3ccncc3)cc2)C1` (centres unmarked) [Example 24, N-((1-Cyanopyrrolidin-3-yl)methyl)-4-(pyridin-4-yl)benzamide]: the concentration for half-maximal inhibition (IC50) lay within 0.1 to 1 µM.

In the case of `Cc1ccccc1-c1cc(C(=O)NCC2CCN(C#N)C2)[nH]n1` (centres unmarked) [Example 25, N-((1-Cyanopyrrolidin-3-yl)methyl)-3-(o-tolyl)-1H-pyrazole-5-carboxamide], the IC50 was 0.1 to 1 µM.

On to `N#CN1CCC(CNC(=O)c2cc(N3CCCC3)ccn2)C1` (centres unmarked) [Example 27, N-((1-Cyanopyrrolidin-3-yl)methyl)-4-(pyrrolidin-1-yl)picolinamide], for which the half-inhibitory concentration (IC50) fell in the range of 0.1 to 1 µM.

Take `N#CN1CCC(CNC(=O)c2ccc(S(=O)(=O)Nc3ccccc3)cc2)C1` (centres unmarked) [Example 30, N-((1-Cyanopyrrolidin-3-yl)methyl)-4-(N-phenylsulfamoyl)benzamide]: the IC50 is 0.1 to 1 µM.

With `COc1ccc(/C=C/C(=O)NCC2CCN(C#N)C2)c(F)c1` (centres unmarked) [Example 32, (E)-N-((1-Cyanopyrrolidin-3-yl)methyl)-3-(2-fluoro-4-methoxyphenyl)acrylamide], the IC50 lay in the range of 0.1 to 1 µM.

`N#CN1CCC(CNC(=O)c2cncc(-c3ccc(F)cc3)c2)C1` (centres unmarked) [Example 33, N-((1-Cyanopyrrolidin-3-yl)methyl)-5-(4-fluorophenyl)nicotinamide]: the IC50 was in the range of 0.1 to 1 µM.

For the compound `N#CN1CC[C@@H](CNC(=O)c2ccc3c(c2)NC(=O)CO3)C1` [Example 34, (S)—N-((1-Cyanopyrrolidin-3-yl)methyl)-3-oxo-3,4-dihydro-2H-benzo[b][1,4]oxazine-6-carboxamide], the IC50 lay within 1 to 10 µM.

For `N#CN1CC[C@H](CNC(=O)c2cn3cc(Cl)ccc3n2)C1` [Example 35, (R)-6-Chloro-N-((1-cyanopyrrolidin-3-yl)methyl)imidazo[1,2-a]pyridine-2-carboxamide], the 50% inhibitory concentration (IC50) lay within 1 to 10 µM.

Regarding `N#CN1CC[C@H](CNC(=O)c2cc3ccccn3n2)C1` [Example 36, (R)—N-((1-Cyanopyrrolidin-3-yl)methyl)pyrazolo[1,5-a]pyridine-2-carboxamide], the IC50 was 1 to 10 µM.

Consider `CN(CC1CCN(C#N)C1)C(=O)Cc1ccc(-c2ccccc2)cc1` (centres unmarked) [Example 37, 2-([1,1′-biphenyl]-4-yl)-N-((1-cyanopyrrolidin-3-yl)methyl)-N-methylacetamide], for which the IC50 was 0.1 to 1 µM.

As for `Cn1cc(-c2ccc3nc(C(=O)NCC4CCN(C#N)C4)cn3c2)cn1` (centres unmarked) [Example 39, N-((1-Cyanopyrrolidin-3-yl)methyl)-6-(1-methyl-1H-pyrazol-4-yl)imidazo[1,2-a]pyridine-2-carboxamide], the half-inhibitory concentration (IC50) lay in the range of 1 to 10 µM.

In the case of `Cc1cc(C(=O)NCC2CCN(C#N)C2)nn1Cc1ccccc1` (centres unmarked) [Example 40, 1-Benzyl-N-((1-cyanopyrrolidin-3-yl)methyl)-5-methyl-1H-pyrazole-3-carboxamide], the IC50 lay within 1 to 10 µM.

Take `N#CN1CCC(CNC(=O)Nc2cccc(Cl)c2)C1` (centres unmarked) [Example 41, 1-(3-Chlorophenyl)-3-((1-cyanopyrrolidin-3-yl)methyl)urea]: the IC50 lay within 0.1 to 1 µM.

For `Cc1ccc(F)c(NC(=O)NCC2CCN(C#N)C2)c1` (centres unmarked) [Example 42, 1-((1-Cyanopyrrolidin-3-yl)methyl)-3-(2-fluoro-5-methylphenyl)urea], the IC50 lay in the range of 0.1 to 1 µM.

With `N#CN1CCC(CNC(=O)Nc2cccc(Cc3ccccc3)c2)C1` (centres unmarked) [Example 43, 1-(3-Benzylphenyl)-3-((1-cyanopyrrolidin-3-yl)methyl)urea], the half-inhibitory concentration (IC50) was 0.1 to 1 µM.

Regarding `N#CN1CCC(CNC(=O)Nc2ccc(Cl)cc2Cl)C1` (centres unmarked) [Example 44, 1-((1-Cyanopyrrolidin-3-yl)methyl)-3-(2,4-dichlorophenyl)urea], the IC50 fell in the range of 0.1 to 1 µM.

With `N#CN1CCC(CNC(=O)Nc2ccc(C(F)(F)F)cc2)C1` (centres unmarked) [Example 45, 1-((1-Cyanopyrrolidin-3-yl)methyl)-3-(4-(trifluoromethyl)phenyl)urea], the concentration for half-maximal inhibition (IC50) is 0.1 to 1 µM.

Regarding `Cc1nc(-c2cccc(S(=O)(=O)N(C)CC3CCN(C#N)C3)c2)cs1` (centres unmarked) [Example 46, N-((1-Cyanopyrrolidin-3-yl)methyl)-N-methyl-3-(2-methylthiazol-4-yl)-benzenesulfonamide], the IC50 lay within 0.1 to 1 µM.

Take `CN(CC1CCN(C#N)C1)S(=O)(=O)c1ccc(Oc2ccc(C(F)(F)F)cn2)cc1` (centres unmarked) [Example 47, N-((1-Cyanopyrrolidin-3-yl)methyl)-N-methyl-4-((5-(trifluoromethyl)pyridin-2-yl)oxy)benzenesulfonamide]: the IC50 lay within 0.1 to 1 µM.
